According to patent publication US10822337B2, “TGF-β inhibitorC” (Rigel Pharmaceuticals, Inc., priority 2015, dated 2020):
pIC50: −log10 of the molar value.

What was measured:
[1] = tested on: TGF-β signaling (TGF-β pSMAD, MPC-11); assay: AlphaScreen SureFire SMAD3 (p-Ser423/425) assay, inhibition of TGF-β signaling; assay type: cell-based; settings: Mus musculus, p-SMAD-3 (Ser423/425) in cell lysate after TGF-β stimulation
Description: (§1) Example 2: AlphaScreen® SureFire® SMAD3 (p-Ser423/425) Assay
(§2) The p-SMAD-3 (Ser423/425) SureFire® assay has been designed to measure the phosphorylation of endogenous cellular p-SMAD-3 (Ser423/425) in cell lysates and is a system for the screening of both modulators of receptor activation (e.g. agonists and antagonists) as well as agents acting intracellularly, such as small molecule inhibitors of upstream events. The assay will measure p-SMAD-3 (Ser423/425) activation by either cloned or endogenous receptors, and can be applied to primary cells.
(§3) 1× Lysis buffer: 1 ml of 5× Lysis buffer was diluted with 4 ml of sterile water. After dilution, excess 1× Lysis buffer can be frozen and thawed up to 5 times without loss in activity.
(§4) P-SMAD-3 (Ser423/425) SureFire® Assay Protocols
(§5) Step A: Preparation of Buffers
(§6) Activation buffer: The buffer was warmed slowly to 37° C. and gently mixed to re-suspend. Activation buffer can be stored at room temperature with no loss in activity.
(§7) Reaction buffer: The buffer was kept at 4° C. while in use.
(§8) AlphaScreen® Protein A IgG Kit: The kit was stored at 4° C. in the dark.
(§9) Reaction buffer+Activation buffer+AlphaScreen® Acceptor beads: Reaction buffer (40 parts), Activation Buffer (10 parts) and Acceptor beads (1 part) were mixed and the mixture was stored at room temperature and used the same day. Mixture was added to 384-well plates; excess mixturewas discarded.
(§10) Dilution buffer+AlphaScreen® Donor beads: Dilution buffer (20 parts) and Donor beads (1 part) were mixed and the mixture was stored at room temperature and used the same day. Excess mixture was discarded.
(§11) Assay control samples: After reconstitution in 250 μl of water, lysates were at −20° C. in single use aliquots.
(§12) Step B: Preparation of Samples and Cells
(§13) 96-well Assay Protocol for 293FT and RMS13 adherent cells can be carried out manually or in high throughput with liquid handling robots.
(§14) The cells (80 μL of cells for 96 well plates) were plated in collagen coated tissue culture plates in RPMI or FreeStyle medium (Invitrogen) and incubated overnight. For manual analysis, 6 plates for GDF8, 6 plates for TGFβ, and optionally 6 plates for Alk5ca(ALKS constitutively active) were used.
(§15) The compound dilution plates were prepared as follows: 12 μL of DMSO was transferred into first column of 96-well plate, and 16 μL of DMSO was transferred into columns 2-12 of the 96-well plate. 12 μL of compound solution was transferred into first column of the DMSO-containing 96-well plate. Three-fold dilution was performed up to column 10 of the DMSO-containing 96-well plate.
(§16) Step C: Treatment and Analysis
(§17) The plate containing cells were treated with compounds for about 10 minutes, and then ligand was added. GDF8 or TGFb was added to plates to stimulate. 293FL cells were stimulatedfor 90 minutes at 37° C.; and RMS13 cells were stimulated for 60 minutes at 37° C. The medium was then removed from the cells, and 1× Lysis Buffer (about 25 μL) was added and the plate was gently agitated on plate shaker for 5-10 minutes.
(§18) The lysate (5 μL) was then placed into 384-well shallow plates avoiding the generation of bubbles. To this, the Reaction Buffer+Activation Buffer+AlphaScreen® Acceptor beadsmixture (5 μL) was added. The plate was sealed with adhesive cover and shielded from light (e.g., with metal foil), and agitated gently on plate shaker for 2 hours at room temperature.
(§19) Dilution buffer+AlphaScreen® Donor beads (2 μL) was then added, and the plate was intubated on the plate shaker for an additional 1½ hours. After completion, the plate was read on Synergy-4 or Enspire plate reader, using AlphaScreen® pSMAD3® settings.
(§20) Representative results for inhibition of GDF8 (data=GDF pSMAD (MPC11) (μM)) and TGF-β (data=TGF-β pSMAD (MPC-11) (μM)) signaling are shown in Table 1: […]

[2] = tested on: GDF8 signaling (GDF pSMAD, MPC11); assay: AlphaScreen SureFire SMAD3 (p-Ser423/425) assay, inhibition of GDF8 signaling; assay type: cell-based; settings: Mus musculus, MPC-11, p-SMAD-3 (Ser423/425) in cell lysate after GDF8 stimulation
Description: as §1, §2, §3, §4, §5, §6, §7, §8, §9, §10, §11, §12, §13, §14, §15, §16, §17, §18, §19, §20

| SMILES | pIC50 [1] | pIC50 [2] |
| --- | --- | --- |
| Fc1cccc(-c2nn3c(c2-c2ccc4ncsc4c2)CCC3)c1 [Compound 81, 6-(2-(3-Fluorophenyl)-5,6-dihydro-4H-pyrrolo[1,2-b]pyrazol-3-yl)benzo[d]thiazole] | 5.73 | 6.43 |
| FC(F)(F)c1cccc(-c2nn3c(c2-c2ccc4ncsc4c2)CCC3)c1 [Compound 35, 6-(2-(3-Trifluoromethylphenyl)-5,6-dihydro-4H-pyrrolo[1,2-b]pyrazol-3-yl)benzo[d]thiazole] | 6.46 | 7.01 |
| Cn1cnc2ccc(-c3c(-c4ccc(F)c(F)c4)nn4c3CCC4)cc21 [Compound 85, 6-(2-(3,4-Difluorophenyl)-5,6-dihydro-4H-pyrrolo[1,2-b]pyrazol-3-yl)-1-methyl-1H-benzo[d]imidazole] | 6.60 | 6.97 |
| c1cc2c(cc1-c1nn3c(c1-c1ccc4[nH]ncc4c1)CCC3)OCO2 [Compound 90, 5-(2-(Benzo[d][1,3]dioxol-5-yl)-5,6-dihydro-4H-pyrrolo[1,2-b]pyrazol-3-yl)-1H-indazole] | 5.40 | 6.11 |
| Cn1cnc2ccc(-c3c(-c4cccc(C(F)(F)F)c4)nn4c3OCC4)cc21 [Compound 60, 7-(1-Methyl-1H-benzo[d]imidazol-6-yl)-6-(3-trifluoromethylphenyl)-1,2-dihydropyrazolo[5,1-b]oxazole] | 6.67 | 7.16 |
| COc1cccc(-c2nn3c(c2-c2ccc4ncn(C)c4c2)CCC3)c1 [Compound 29, 6-(2-(3-Methoxyphenyl)-5,6-dihydro-4H-pyrrolo[1,2-b]pyrazol-3-yl)-1-methyl-1H-benzo[d]imidazole] | 6.58 | 6.98 |
| Cn1cnc2ccc(-c3c(-c4cccc(F)c4)nn4c3CCC4)cc21 [Compound 79, 6-(2-(3-Fluorophenyl)-5,6-dihydro-4H-pyrrolo[1,2-b]pyrazol-3-yl)-1-methyl-1H-benzo[d]imidazole] | 6.38 | 6.71 |
| Cc1cccc(-c2nn3c(c2-c2ccc4ncn(C)c4c2)OCCC3)c1 [Compound 41, 3-(1-Methyl-1H-benzo[d]imidazol-6-yl)-2-(m-tolyl)-6,7-dihydro-5H-pyrazolo[5,1-b][1,3]oxazine] | 6.72 | 7.09 |
| Fc1cccc(-c2nn3c(c2-c2ccc4[nH]ncc4c2)CCC3)c1 [Compound 77, 5-(2-(3-Fluorophenyl)-5,6-dihydro-4H-pyrrolo[1,2-b]pyrazol-3-yl)-1H-indazole] | 5.87 | 6.47 |
| Cc1cc(-c2nn3c(c2-c2ccc4cn[nH]c4c2)CCC3)ccc1F [Compound 3, 6-(2-(4-Fluoro-3-methylphenyl)-5,6-dihydro-4H-pyrrolo[1,2-b]pyrazol-3-yl)-1H-indazole] | 6.64 | 7.19 |
| Fc1ccc(-c2nn3c(c2-c2ccc4nccn4c2)OCC3)cc1 [Compound 67, 6-(4-Fluorophenyl)-7-(imidazo[1,2-a]pyridin-6-yl)-2,3-dihydropyrazolo[5,1-b]oxazole] | 5.58 | 6.48 |

Next, values leading:

| pIC50 [1] | pIC50 [2] | SMILES |
| --- | --- | --- |
| 6.18 | 6.87 | Fc1cc(F)c(-c2nn3c(c2-c2ccc4cn[nH]c4c2)CCC3)cc1Cl [Compound 187, 6-(2-(5-Chloro-2,4-difluorophenyl)-5,6-dihydro-4H-pyrrolo[1,2-b]pyrazol-3-yl)-1H-indazole] |
| 5.85 | 6.50 | Fc1ccc(-c2nn3c(c2-c2ccc4nccn4c2)CCC3)c(F)c1F [Compound 130, 6-(2-(2,3,4-Trifluoropehnyl)-5,6-dihydro-4H-pyrrolo[1,2-b]pyrazol-3-yl)imidazo[1,2-a]pyridine] |
| 5.78 | 6.49 | COc1ccc(-c2nn3c(c2-c2ccc4cn[nH]c4c2)CCC3)cc1 [Compound 99, 6-(2-(4-Methoxyphenyl)-5,6-dihydro-4H-pyrrolo[1,2-b]pyrazol-3-yl)-1H-indazole] |
| 6.73 | 7.56 | Fc1cc(F)c(-c2nn3c(c2-c2ccc4ncsc4c2)CCC3)cc1F [Compound 116, 6-(2-(2,4,5-Trifluorophenyl)-5,6-dihydro-4H-pyrrolo[1,2-b]pyrazol-3-yl)benzo[d]thiazole] |
| 5.83 | 6.81 | Fc1cc(F)c(-c2nn3c(c2-c2ccc4ncccc4c2)CCC3)cc1F [Compound 117, 6-(2-(2,4,5-Trifluorophenyl)-5,6-dihydro-4H-pyrrolo[1,2-b]pyrazol-3-yl)quinoline] |
| 5.26 | 6.06 | Clc1ccccc1-c1nn2c(c1-c1ccc3ncsc3c1)CCC2 [Compound 120, 6-(2-(2-Chlorophenyl)-5,6-dihydro-4H-pyrrolo[1,2-b]pyrazol-3-yl)benzo[d]thiazole] |
| 5.59 | 6.43 | Fc1ccc(F)c(-c2nn3c(c2-c2ccc4cn[nH]c4c2)CCC3)c1 [Compound 193, 6-(2-(2,5-Difluorophenyl)-5,6-dihydro-4H-pyrrolo[1,2-b]pyrazol-3-yl)-1H-indazole] |
| 6.08 | 6.58 | Fc1ccc(-c2nn3c(c2-c2ccc4[nH]ncc4c2)CCC3)c(F)c1 [Compound 91, 5-(2-(2,4-Difluorophenyl)-5,6-dihydro-4H-pyrrolo[1,2-b]pyrazol-3-yl)-1H-indazole] |
| 6.08 | 6.35 | Fc1ccc(-c2nn3c(c2-c2ccc4ncnn4c2)CCC3)cc1OC(F)(F)F [Compound 154, 6-(2-(4-Fluoro-3-trifluoromethoxyphenyl)-5,6-dihydro-4H-pyrrolo[1,2-b]pyrazol-3-yl)-[1,2,4]triazolo[1,5-a]pyridine] |
| 7.18 | 7.36 | Fc1cc(F)c(-c2nn3c(c2-c2ccc4ncnn4c2)CCC3)cc1Cl [Compound 192, 6-(2-(5-Chloro-2,4-difluorophenyl)-5,6-dihydro-4H-pyrrolo[1,2-b]pyrazol-3-yl)-[1,2,4]triazolo[1,5-a]pyridine] |
| 6.06 | 6.44 | Fc1c(Cl)cccc1-c1nn2c(c1-c1ccc3nccn3c1)CCC2 [Compound 139, 6-(2-(3-Chloro-2-fluorophenyl)-5,6-dihydro-4H-pyrrolo[1,2-b]pyrazol-3-yl)imidazo[1,2-a]pyridine] |
| 6.32 | 7.11 | Fc1ccc(-c2nn3c(c2-c2ccc4nccn4c2)CCC3)c(F)c1 [Compound 94, 6-(2-(2,4-Difluorophenyl)-5,6-dihydro-4H-pyrrolo[1,2-b]pyrazol-3-yl)imidazo[1,2-a]pyridine] |
| 6.09 | 6.86 | Fc1cc(F)c(-c2nn3c(c2-c2ccc4[nH]ncc4c2)CCC3)cc1F [Compound 112, 5-(2-(2,4,5-Trifluorophenyl)-5,6-dihydro-4H-pyrrolo[1,2-b]pyrazol-3-yl)-1H-indazole] |
| 7.11 | 7.17 | FC(F)(F)Oc1cccc(-c2nn3c(c2-c2ccc4[nH]ncc4c2)CCC3)c1 [Compound 122, 5-(2-(3-Trifluoromethoxyphenyl)-5,6-dihydro-4H-pyrrolo[1,2-b]pyrazol-3-yl)-1H-indazole] |
| 5.56 | 6.28 | Fc1ccc(-c2nn3c(c2-c2ccc4nccnc4c2)CCC3)c(F)c1Cl [Compound 159, 6-(2-(3-Chloro-2,4-difluorophenyl)-5,6-dihydro-4H-pyrrolo[1,2-b]pyrazol-3-yl)quinoxaline] |
|  | 5.61 | COc1ccc(-c2nn3c(c2-c2ccc4ncccc4c2)CCC3)cc1 [Compound 101, 6-(2-(4-Methoxyphenyl)-5,6-dihydro-4H-pyrrolo[1,2-b]pyrazol-3-yl)quinoline] |
